Measured values reported in ChEMBL document CHEMBL5260815, “Profiling of in vitro activities of urea-based inhibitors against cysteine synthases from Mycobacterium tuberculosis” (Bioorg Med Chem Lett, 2017).

Key:
[1] = molecular target: O-phosphoserine sulfhydrylase (Mycobacterium tuberculosis (strain ATCC 25618 / H37Rv), UniProt P9WP53); test: Inhibition of Mycobacterium tuberculosis CysM
S-sulfocysteine synthase [2] = molecular target: T1, S-sulfocysteine synthase (Mycobacterium tuberculosis (strain ATCC 25618 / H37Rv), UniProt Q79FV4); test: Inhibition of hexahistidine-tagged recombinant Mycobacterium tuberculosis CysK2 expressed in Escherichia coli BL21(DE3) assessed as amount of S-sulfocysteine produced using […] as substrate incubated for 30 mins by acid-ninhydrin based spectrophotometric assay
T1 sequence (Q79FV4 whole entry): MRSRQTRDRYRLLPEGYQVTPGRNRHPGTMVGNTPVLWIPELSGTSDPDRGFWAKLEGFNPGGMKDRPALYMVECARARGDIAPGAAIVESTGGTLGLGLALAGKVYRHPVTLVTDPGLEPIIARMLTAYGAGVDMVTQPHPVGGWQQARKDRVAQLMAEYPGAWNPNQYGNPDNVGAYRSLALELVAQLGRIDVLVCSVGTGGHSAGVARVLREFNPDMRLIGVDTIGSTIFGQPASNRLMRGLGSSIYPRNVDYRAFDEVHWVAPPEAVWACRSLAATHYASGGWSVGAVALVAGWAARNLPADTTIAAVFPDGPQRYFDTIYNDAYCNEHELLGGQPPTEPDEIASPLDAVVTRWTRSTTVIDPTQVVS

[3] = molecular target: T2, O-acetylserine sulfhydrylase (Mycobacterium tuberculosis, UniProt P9WP55); test: Inhibition of hexahistidine-tagged recombinant Mycobacterium tuberculosis CysK1 expressed in Escherichia coli BL21(DE3) assessed as amount of cysteine produced using O-acetyl-L-serine as substrate incubated for 12 mins by acid-ninhydrin based spectrophotometric assay
[4] = molecular target: T2, O-acetylserine sulfhydrylase; test: Inhibition of hexahistidine-tagged recombinant Mycobacterium tuberculosis CysK1 expressed in Escherichia coli BL21(DE3) assessed as dissociation constant using PLP as substrate incubated for 5 mins by fluorescence analysis
S-sulfocysteine synthase [5] = molecular target: T1, S-sulfocysteine synthase; test: Inhibition of hexahistidine-tagged recombinant Mycobacterium tuberculosis CysK2 expressed in Escherichia coli BL21(DE3) assessed as dissociation constant using PLP as substrate incubated for 5 mins by fluorescence analysis
S-sulfocysteine synthase [6] = molecular target: T1, S-sulfocysteine synthase; test: Inhibition of hexahistidine-tagged recombinant Mycobacterium tuberculosis CysK2 expressed in Escherichia coli BL21(DE3) assessed as inhibition constant using […] as substrate by Lineweaver-Burk plot analysis

O-phosphoserine sulfhydrylase, sequence (P9WP53 whole entry): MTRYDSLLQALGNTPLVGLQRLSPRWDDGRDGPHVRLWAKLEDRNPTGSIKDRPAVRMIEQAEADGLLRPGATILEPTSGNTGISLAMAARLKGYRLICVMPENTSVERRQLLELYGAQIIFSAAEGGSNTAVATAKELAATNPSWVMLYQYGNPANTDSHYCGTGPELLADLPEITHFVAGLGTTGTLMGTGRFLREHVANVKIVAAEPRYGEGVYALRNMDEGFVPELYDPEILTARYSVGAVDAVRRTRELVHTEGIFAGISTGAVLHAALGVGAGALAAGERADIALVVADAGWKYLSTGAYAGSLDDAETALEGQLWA

SMILES	IC50 [1]	IC50 (S-sulfocysteine synthase [2])	IC50 [3]	Kd [4]	Kd (S-sulfocysteine synthase [5])	Ki (S-sulfocysteine synthase [6])
O=C(Nc1cccc(C(=O)O)c1)Nc1ccc(Cl)c(Cl)c1	0.48 µM	10.1 µM	11.2 µM	241 µM	48.7 µM	–
O=C(Nc1ccc(Cl)c(Cl)c1)Nc1ccc(O)c(C(=O)O)c1	–	29.9 µM	2.5 µM	75.7 µM	–	–
O=C(Nc1cccc(-c2ccccc2)c1)Nc1ccc(O)c(C(=O)O)c1	–	10.3 µM	9.3 µM	–	102 µM	–
O=C(Nc1ccc(Br)cc1)Nc1cccc(C(=O)O)c1	–	27.6 µM	–	–	17.7 µM	–
COc1ccc(OC)c(NC(=O)Nc2ccccc2C(=O)O)c1	–	–	–	59.9 µM	–	–
O=C(Nc1ccc(Cl)cc1)Nc1cccc(C(=O)O)c1	–	13 µM	–	–	16.9 µM	–
O=C(O)c1cccc(NS(=O)(=O)c2cccc(-c3ccc(Cl)c(Cl)c3)c2)c1	–	–	–	110 µM	–	–
O=C(Nc1cccc(-c2ccccc2)c1)Nc1ccc(C(=O)O)c(O)c1	–	26.9 µM	21.2 µM	–	–	–
O=C(Nc1cccc(-c2nnn[nH]2)c1)Nc1ccc(Cl)c(Cl)c1	–	–	–	–	80.3 µM	–
O=C(Nc1ccc(Br)cc1)Nc1ccc(C(=O)O)c(O)c1	–	–	29.4 µM	–	–	–
Cc1ccc(NC(=O)Nc2cccc(C(=O)O)c2)cc1	–	–	–	–	148 µM	–
O=C(Nc1cccc(C(=O)O)c1)Nc1cccc(-c2ccccc2)c1	–	6.6 µM	4.9 µM	96.8 µM	14.9 µM	1.1 µM
